# Results: US12084456B2, “Isocarbostyril alkaloids and functionalization thereof” (The Board of Trustees of the University of Illinois, priority 2018, dated 2024)
# Read-outs that look alike come from different tables or passages of the source.
# Key:
# [1] = Mouse liver microsome assay; format: in vitro ADME; conditions: mouse liver microsomes, 3 h, percentage remaining
# Description: A mixture of PBS (pH 7.4), NADPH regenerating system solution A (Corning Life Sciences), and NADPH regenerating system solution B (Corning Life Sciences) was incubated at 37° C. in a shaking incubator for 5 min. Next, compound was added in DMSO (final concentration 50 μM, 0.5% DMSO) before ice-cold mouse liver microsomes (Thermo Fisher, male CD-1 mice, pooled) were added (final protein concentration of 1 mg/mL). An aliquot was immediately removed, quenched with an equal volume of 100 μM internal standard in ice-cold acetonitrile, and centrifuged at 13,000 rcf for 3 min. The supernatant was diluted 1:5 in ddH2O and analyzed by LC-MS. The reactions were incubated at 37° C. in a shaking incubator for 3 h. A second aliquot was removed, quenched and diluted as before and analyzed by LC-MS. The ratio of the areas of analyte:internal standard at 3 hours was compared to the ratio at t0 to determine the percentage of compound remaining. Analysis was performed using a Kinetex® Evo C-18 50 mm column running a gradient from 3%→95% MeCN in water over 9 minutes at 0.4 mL/min. Internal standard=(+)-pancratistatin tetaacetate S4.
# [2] = system: A549 cells; conditions: for anticancer activity / cytotoxicity in words: human lung and colon cancer cell lines (A549 and HCT116); for IC50: read-out: Activity data for compounds: A549
# [3] = system: HCT116 cells; assay: Cell viability assay (Alamar Blue, 72 h), HCT116; format: cell-based, human; conditions: for IC50: read-out: Activity data for compounds: HCT116
# [4] = Solubility assay (shake-flask method); format: physicochemical; conditions: for solubility at 24 h: thermodynamic from solid, water, stirred 24 hours, shake-flask, LCMS, read-out: aq. Solubility; for increased solubility when compared to natural counterpart: 47 vs narciclasine, 52 vs pancratistatin
# Description: A calibration was made for each compound by diluting a 1 mM DMSO solution to 10, 25, 50, 75, and 100 μM and then measuring their relative UV absorbance by LC-MS using a Kinetex© Evo C-18 50 mm column running a gradient from 5%→90% MeCN in water over 4 minutes at 0.4 mL/min.
# The aqueous solubility of each compound was measured using the shake-flask method. 1.0 mg of compound was diluted to 40 mM with water then stirred for 24 hours. Each solution was then filtered, diluted 10-fold, and analyzed by LCMS. The relative UV absorbance of each compound was then compared to its calibration curve to quantify its aqueous solubility.
# [5] = A549 human lung cancer cells, 72 h, Alamar Blue
# [6] = HCT116 human colon cancer cells, 72 h, Alamar Blue
# [7] = HCT-116, HCT116 human colon cancer cells, 72 h, Alamar Blue
"IC50 [2, 5] [µM]","IC50 [3, 7] [µM]",SMILES,anticancer activity / cytotoxicity in words [2],IC50 [2] [µM],"IC50 ([3]; Homo sapiens, HCT-116, 72 h) [µM]",other results
–,–,"O=C1N[C@H]2[C@H](O)[C@H](O)[C@@H](O)[C@H](O)[C@@H]2c2cc3c(cc21)OCO3 [compound 1, (+)-7-deoxypancratistatin, reference compound]",–,2.9,1.5,–
–,–,"O=C1N[C@H]2[C@H](O)[C@H](O)[C@@H](O)[C@H](O)[C@@H]2c2cc3c(c(O)c21)OCO3 [compound 2, (+)-pancratistatin, reference compound]",–,0.75,0.44,solubility at 24 h [4]: 560 ± 70 µg/mL
–,–,"C=CCc1c2c(cc3c1C(=O)N[C@@H]1C3=C[C@H](O)[C@@H](O)[C@H]1O)OCO2 [compound 38, 7-allyl lycoricidine]",–,> 100,> 100,–
–,–,"O=C1N[C@@H]2C(=C[C@H](O)[C@@H](O)[C@H]2O)c2cc3c(c(C(=O)c4ccccc4)c21)OCO3 [compound 39, 7-oxophenyl lycoricidine]",–,44,35,–
–,–,"COCc1c2c(cc3c1C(=O)N[C@@H]1C3=C[C@H](O)[C@@H](O)[C@H]1O)OCO2 [compound 40, 7-methoxymethyl lycoricidine]",–,48,50,–
–,–,"O=C1N[C@@H]2C(=C[C@H](O)[C@@H](O)[C@H]2O)c2cc3c(c(CO)c21)OCO3 [compound 41, 7-hydroxymethyl lycoricidine]",less potent,> 100,> 100,–
–,–,"COC(=O)c1c2c(cc3c1C(=O)N[C@@H]1C3=C[C@H](O)[C@@H](O)[C@H]1O)OCO2 [compound 42, 7-carboxymethyl lycoricidine]",–,39,29,–
74,80,"CCOC(=O)Cc1c2c(cc3c1C(=O)N[C@@H]1C3=C[C@H](O)[C@@H](O)[C@H]1O)OCO2 [compound 44, ethyl 2-(7-lycoricidinyl)acetate]",–,–,–,–
–,–,"O=C(O)Cc1c2c(cc3c1C(=O)N[C@@H]1C3=C[C@H](O)[C@@H](O)[C@H]1O)OCO2 [compound 45, 2-(7-lycoricidinyl)acetic acid]",–,89,70,–
–,–,"N#Cc1c2c(cc3c1C(=O)N[C@@H]1C3=C[C@H](O)[C@@H](O)[C@H]1O)OCO2 [compound 46, 7-cyanolycoricidine]",–,1.2,0.48,activity compared to lycoricidine (3) in HCT116 cells [3]: increased activity when compared to lycoricidine
–,–,"Nc1c2c(cc3c1C(=O)N[C@@H]1C3=C[C@H](O)[C@@H](O)[C@H]1O)OCO2 [compound 47, 7-aminolycoricidine]",–,0.38,0.39,increased solubility when compared to natural counterpart [4]: 11 fold; solubility at 24 h [4]: 3740 ± 200 µg/mL
28,12,"CNc1c2c(cc3c1C(=O)N[C@@H]1C3=C[C@H](O)[C@@H](O)[C@H]1O)OCO2 [compound 48, N-methyl-7-aminolycoricidine]",did not show significant cytotoxicity,–,–,–
> 100,> 100,"CC(=O)Nc1c2c(cc3c1C(=O)N[C@@H]1C3=C[C@H](O)[C@@H](O)[C@H]1O)OCO2 [compound 49, 7-acetamidelycoricidine]",did not show significant cytotoxicity,–,–,–
> 100,> 100,O=C1N[C@@H]2C(=C[C@H](O)[C@@H](O)[C@H]2O)c2cc3c(c(N4CCCC4)c21)OCO3 [compound 50],did not show significant cytotoxicity,–,–,–
39,33,"O=C1N[C@@H]2C(=C[C@H](O)[C@@H](O)[C@H]2O)c2cc3c(c(N4CCOCC4)c21)OCO3 [compound 51, 7-(4-morpholinyl)lycoricidine]",did not show significant cytotoxicity,–,–,–
–,–,"Nc1c2c(cc3c1C(=O)N[C@H]1[C@H](O)[C@H](O)[C@@H](O)[C@H](O)[C@H]31)OCO2 [compound 52, 7-aminopancratistatin]",–,9,3.4,increased solubility when compared to natural counterpart [4]: 6 fold; solubility at 24 h [4]: 3460 ± 140 µg/mL
0.22,0.147,"COc1cccc2c1C(=O)c1c(O)c3c(c(O)c1C2=O)C[C@@](O)(C(=O)CO)C[C@@H]3O[C@H]1C[C@H](N)[C@H](O)[C@H](C)O1 [doxorubicin, reference compound]",–,–,–,–

SMILES,"IC50 [2, 5] [µM]","IC50 [3, 7] [µM]",anticancer activity / cytotoxicity in words [2],IC50 [2] [µM],"IC50 ([3]; Homo sapiens, HCT-116, 72 h) [µM]",other results
"[2H]C1([2H])Oc2cc3c(c(O)c2O1)C(=O)N[C@@H]1C3=C[C@H](O)[C@@H](O)[C@H]1O [4-d2, (+)-narciclasine 4-d2]",0.07,–,equipotent activity,–,–,"greater metabolic stability when compared to narciclasine (4) [1]: ~30%; IC50 [3, 6]: 0.04 µM"
"[2H]C1=C2c3cc4c(c(O)c3C(=O)N[C@@]2([2H])[C@]([2H])(O)[C@]([2H])(O)[C@@]1([2H])O)OCO4 [4-d5, (+)-narciclasine 4-d5]",0.066,–,equipotent activity,–,–,"greater metabolic stability when compared to narciclasine (4) [1]: ~30%; IC50 [3, 6]: 0.043 µM"
"O=C1N[C@@H]2C(=C[C@H](O)[C@@H](O)[C@H]2O)c2cc3c(cc21)OCO3 [compound 3, (+)-lycoricidine, reference compound]",0.73,0.54,–,–,–,–
"O=C1N[C@@H]2C(=C[C@H](O)[C@@H](O)[C@H]2O)c2cc3c(c(O)c21)OCO3 [compound 4, (+)-narciclasine, reference compound]",0.056,–,–,–,–,"IC50 [3, 6]: 0.0324 µM"
"O=C1N[C@@H]2C(=C[C@H](O)[C@@H](O)[C@H]2O)c2cc3c(c(C(=O)O)c21)OCO3 [compound 43, lycoricidine-7-carboxylic acid]",> 100,–,–,–,80,–
